# Experimental data as given in patent publication US6110918A, “Mesylate trihydrate salt of 5-(2-(4-(1,2-benzisothiazol-3-yl)-1-piperazinyl)ethyl)-6-chloro-1,3-dihy dro-2(1H)-indol-2-one (=ziprasidone), its preparation and its use as dopamine D2 antagonist” (Pfizer Inc, priority 1999, dated 2000).
# Structures can show the parent of a compound that is named as a salt. Where two headings read alike, the source gives them in different places.
# Columns and labels:
# [1] = for SOLUBILITY IN WATER: Aqueous solubility of ziprasidone mesylate polymorphs, ambient temperature (22-25° C.), equilibration 12-13 days
# Protocol: (§1) The relative thermodynamic stability of the three ziprasidone mesylate hydrated crystal forms was determined in a series of bridging experiments where mixtures of the crystal forms were allowed to equilibrate. For the bridging experiments, 200 mg samples were allowed to equilibrate in water (4 mL) at ambient temperature (22-25° C.). Two samples each of 90/10 (w/w) and 10/90 (w/w) mixtures of the two different identified polymorphs of ziprasidone mesylate (prism vs. dihydrate (lath), prism vs. dihydrate (needle), dihydrate (needle) vs. dihydrate (lath)) were evaluated. After equilibration (12-13 days), the solids were evaluated for polymorph changes and the supernatants were assayed by HPLC to determine solubility.
# [2] = Hygroscopicity / hygroscopic stability; assay type: physicochemical
# [3] = as stated by U.S. Pat. No. 5,312,925; cited from earlier work
# [4] = Relative thermodynamic stability of the crystal forms in water (bridging experiments); assay type: physicochemical; details: for thermodynamic stability in an aqueous medium (words): ambient conditions/temperature, among the four ziprasidone mesylate forms, methanesulfonate trihydrate
# physchem = details: water
# Protocol: as §1
smiles,measurement,setting,value
"O=C1Cc2cc(CCN3CCN(c4nsc5ccccc45)CC3)c(Cl)cc2N1 [5-[2-[4-(1,2-benzisothiazol-3-yl)-1-piperazinyl]ethyl]-6-chloro-1,3-dihydro-2H-indol-2-one methanesulfonate anhydrous]",SOLUBILITY IN WATER,[1]; listed as anhydrous,1.27 mg/mL
same,hygroscopicity when exposed to air,[2]; exposed to air (humidity),hygroscopic when exposed to air (humidity)
"O=C1Cc2cc(CCN3CCN(c4nsc5ccccc45)CC3)c(Cl)cc2N1 [5-[2-[4-(1-benzisothiazol-3-yl)-1-piperazinyl]ethyl]-6-chloro-1,3-dihydro-2H-indol-2-one methanesulfonate dihydrate (lath crystals)]",SOLUBILITY IN WATER,[1]; listed as dihydrate (lath),1.11 mg/mL
"O=C1Cc2cc(CCN3CCN(c4nsc5ccccc45)CC3)c(Cl)cc2N1 [5-[2-[4-(1-benzisothiazol-3-yl)-1-piperazinyl]ethyl]-6-chloro-1,3-dihydro-2H-indol-2-one methanesulfonate dihydrate (needle crystals)]",SOLUBILITY IN WATER,[1]; listed as dihydrate (needle),1.10 mg/mL
"O=C1Cc2cc(CCN3CCN(c4nsc5ccccc45)CC3)c(Cl)cc2N1 [ziprasidone hydrochloride monohydrate, reference compound]",aqueous solubility,[1]; background statement,low aqueous solubility
same,solubility in water,"[1]; in water at ambient temperature, comparator salt",80 µg/mL
same,hygroscopic stability,[3],substantially hygroscopically stable
"CS(=O)(=O)O.O.O.O.O=C1Cc2cc(CCN3CCN(c4nsc5ccccc45)CC3)c(Cl)cc2N1 [ziprasidone mesylate trihydrate, 5-[2-[4-(1,2-benzisothiazol-3-yl)-1-piperazinyl]ethyl]-6-chloro-1,3-dihydro-2H-indol-2-one methanesulfonate trihydrate]",thermodynamic stability in an aqueous medium (words),[4]; listed as mesylate trihydrate,most thermodynamically stable
same,thermodynamic stability in an aqueous medium (words),[4],most thermodynamically stable form of the four ziprasidone mesylate forms
same,thermodynamic stability relative to the dihydrate forms,"[4]; bridging experiments, 200 mg in water (4 mL), 22-25° C., 12-13 days",thermodynamically favored over the dihydrate forms
same,aqueous solubility relative to ziprasidone hydrochloride monohydrate,[1]; compared with hydrochloride monohydrate,significantly greater aqueous solubility than the hydrochloride monohydrate
same,hygroscopic stability,[2],possesses hygroscopic stability
same,solubility,physchem,730 µg/mL
